# Assay results from publication PMC3805573, “Methylglyoxal Evokes Pain by Stimulating TRPA1” (PLoS ONE, 2013).
# Key:
# [1] = system: MDCK cells; assay: [Ca2+]i-measurements in MDCK cells; assay type: cell-based, Canine
# Method: MDCK cells were grown in DMEM (Invitrogen) supplemented with 5% fetal bovine serum, 100 U/ml penicillin and 100 µg/ml streptomycin. […] The experiments were performed in a physiological saline solution containing (in mM) 140 NaCl, 5 KCl, 10 glucose, 10 HEPES, 2 CaCl2, and 1 MgCl2, buffered to pH 7.4 with NaOH. Compounds were applied to cells by local continuous microperfusion of solution through a fine tube placed in close proximity of the cells studied. […] Analyses of emission intensity ratios at 340 nm/380 nm excitation (R, in individual cells) were performed using the ImageMaster suite of software. […] Cells grown in 96 well black walled plates (Costar, Tewksbury, MA) were loaded with Fura 2-AM in the presence of 1 mM probenecid at 37°C for 1–1.5 hours and assays were carried out at 25°C. Basal emission ratios (340 nm/380 nm) were measured and changes in ratio determined at various times after compound addition.
# [2] = system: TRPA1; assay: Outward TRPA1 currents in absence of Ca2+, effect of DTT; assay type: cell-based; conditions: +60 mV, Ca2+-free
# Method: DRG neurons and TRPA1 CHO cells were studied under voltage-clamp conditions using an Axopatch 200B amplifier and pClamp 10.0 software (Molecular Devices, Sunnyvale, CA). Except where stated otherwise, whole cell recordings were performed at a holding potential of –60 mV using an extracellular solution with the composition described above for [Ca^2+]i measurements. Borosilicate glass pipettes (2–5 MΩ, 75–80% series resistance compensation) were filled with (in mM) 140 KCl, 1 CaCl2, 2 MgATP, 10 EGTA, and 10 HEPES buffered to pH 7.4 (KOH). Excised inside-out patches were recorded using a Ca^2+-free solution containing (in mM) 140 NaCl, 5 KCl, 1 MgCl2, 10 HEPES and 1 EGTA, pH 7.4 (NaOH) in the pipettes and perfused with 140 KCl, 2 MgATP, 1 EGTA, and 10 HEPES (pH 7.4). DRG neurons were studied using an intracellular solution containing (in mM) 140 CsCl, 1 CaCl2, 2 MgATP, 10 EGTA and 10 HEPES, pH 7.4 (CsOH). Drugs were applied by local microperfusion with a rapid solution changer (RSC-200, Biologic, Claix, France).
# It is possible that MG stimulates TRPA1 through formation of reversible hemithioacetals with cysteine residues other than those examined here, [40]. To investigate this possibility we examined the effect of the reducing agent dithiothreitol (DTT, 2 mM) on outward TRPA1 currents recorded in the absence of Ca^2+ (5 mM BAPTA intracellularly, 1 mM EGTA extracellularly) to avoid Ca^2+-mediated inactivation or desensitization. We used DTT to determine whether disulfide bridge formation or reversible noncovalent interactions contribute to the agonist activity of MG. DTT is expected to rapidly reduce cystine bridges to free thiols, but also to form hemithioacetals with MG, thereby accelerating current decay. Covalent modification of arginine and lysine residues by MG and modification of cysteine residues by AITC are on the other hand resistant to DTT [31]. […] This is consistent with the expected oxidative formation of cystine bridges and their reduction by DTT [4]. The contrast between the stable currents produced by H2O2 and the spontaneously reversible currents evoked by MG highlights the reversible nature of the interaction between MG and TRPA1. […] We also observed that repeated applications of MG and H2O2 evoked reproducible current responses of similar amplitudes, whereas an application of AITC prevented subsequent channel activation by AITC challenges (Fig. 4C-E). We conclude that MG acts through a reversible interaction with TRPA1 and that H2O2 relies on DTT sensitive oxidative modification of TRPA1 protein for its activity. […] In contrast, the covalent modification produced by AITC appears irreversible and renders TRPA1 refractory to subsequent activation.
# [3] = system: beta cells; assay: [Ca2+]i-responses in pancreatic beta cells; assay type: cell-based, mice; conditions: AITC, cells from wildtype or Trpa1-/- mice (data not shown)
# Method: Mouse islets of Langerhans were isolated from the exocrine pancreas by collagenase digestion (1 mg/ml, type XI, Sigma, Poole, UK). Islets were dissociated by 15 min incubation in trypsin (0.5%, Sigma, Poole, UK) followed by trituration through a flame polished glass Pasteur pipette and the islet cells were seeded on glass cover slips.
# (§1) Cells were loaded with 2 µM Fura-2 AM (Molecular Probes, Paisley, UK) in the presence of 1 mM probenecid for ∼1 hr. The experiments were performed in a physiological saline solution containing (in mM) 140 NaCl, 5 KCl, 10 glucose, 10 HEPES, 2 CaCl2, and 1 MgCl2, buffered to pH 7.4 with NaOH. Compounds were applied to cells by local continuous microperfusion of solution through a fine tube placed in close proximity of the cells studied. Images of a group of cells were captured every 2 sec using 340 and 380 nm excitation wavelengths with emission measured at 520 nm with a microscope based imaging system (PTI, New Jersey). Analyses of emission intensity ratios at 340 nm/380 nm excitation (R, in individual cells) were performed using the ImageMaster suite of software.
# [4] = biological target: T1, mTRPA1 K712Q (Mus musculus, UniProt Q8BLA8, K712Q); assay: [Ca2+]i-responses of mTRPA1 K712Q in CHO cells; assay type: cell-based
# T1 construct: expressed in transfected cells; host or cells: CHO cells
# Method: (§2) Untransfected CHO cells and CHO cells expressing mouse or human TRPA1 were grown in MEM Glutamax or AQ medium supplemented with penicillin (100 U/ml), streptomycin (100 µg/ml), and FCS (10%). Plasmids encoding mutated TRPA1 channels were kindly provided by Dr. Ardem Patapoutian. All media, serum and antibiotics were from Invitrogen (Paisley, UK) or Sigma (Poole, UK).
# as §1
# [5] = system: human TRPA1 C621S, C641S or C665S; assay: [Ca2+]i-responses of human TRPA1 point mutants C621S, C641S, C665S; assay type: cell-based; conditions: human TRPA1 single point mutants vs wildtype
# Method: as §2
# as §1, with “Analyses of emission intensity ratios at 340 nm/380 nm excitation (R, in individual cells) were performed using the ImageMaster suite of software.” left out
# Changes in intracellular calcium ([Ca^2+]i) in response to agonists were determined in TRPA1 expressing CHO cells and MDCK cells using a Flexstation 3 (Molecular Devices). […] Basal emission ratios (340 nm/380 nm) were measured and changes in ratio determined at various times after compound addition.
# [6] = system: mice; assay: Acute GLO-1 inhibition, paw pressure and von Frey tests; assay type: in vivo; conditions: 1 h after administration, 50 mg/kg i.p.
# Method: (§3) Mechanical thresholds were measured using an Analgesymeter (Ugo-Basile, Milan). Mice were kept in their holding cages to acclimatize (10–15 min) to the experimental room. The experimenter then lightly restrained the mouse and applied an increasing pressure stimulus to the dorsal surface of the hind paw using a blunt conical probe. The nociceptive threshold was defined as the force in grams at which the mouse withdrew its paw. In order to avoid tissue injury a 150 g force cut-off value was used.
# Tactile allodynia was assessed by measuring withdrawal thresholds to calibrated von Frey filaments (0.008–2 g). Animals were placed in a Perspex chamber with a metal grid floor giving access to the underside of their paws and allowed to acclimatize prior to the start of the experiment. […] Using a modified ‘up-down’ method the lowest force filament producing a positive response was recorded as the threshold.
# (§4) Methylglyoxal (250 nmoles in 25 µl saline) was injected subcutaneously into the plantar surface of one of the hind paws using a 50 µl luer-syringe (Hamilton Co.) fitted with a 26-gauge x 3/8 inch intradermal needle. Immediately after injection, mice were placed inside a Perspex chamber and the duration of the pain-related behaviors (licking and biting or flinching and shaking of the injected paw) recorded using a digital stop-watch. […]
# [7] = system: Trpa1+/+ and Trpa1-/- mice; assay: Intraepidermal nerve fiber density in plantar skin (PGP9.5); assay type: in vivo; conditions: 2 weeks treatment, 50 mg/kg every other day, either genotype
# Method: Formalin fixed plantar skin was embedded in paraffin wax and cut in 8 µm sections and stained with rabbit polyclonal anti-PGP9.5 (1 in 5000, Ultraclone Ltd, UK) after citric acid heat induced epitope retrieval. Staining was visualized using anti-rabbit IgG labeled with Alexa-594. The number of PGP9.5 positive fibers crossing the basal membrane into the epidermis was determined in n = 6 mice for each group on a Zeiss Axioplan 2 microscope. The observer was blinded to the treatment.
# [8] = system: Trpa1+/+ and Trpa1-/- mice; assay: Two week GLO-1 inhibition, nociceptive responses to cold, heat and mechanical stimulation; assay type: in vivo
# Method: Data shown are from male and female homozygote Trpa1^− ^/− and Trpa1 ^+/+. The Trpa1-null mice and wild-type littermates were bred from heterozygotic mice provided by Drs. Kelvin Kwan and David Corey (Harvard Medical School, Boston, MA).
# as §3
# Tactile allodynia was assessed by measuring withdrawal thresholds to calibrated von Frey filaments (0.008–2 g). Animals were placed in a Perspex chamber with a metal grid floor giving access to the underside of their paws and allowed to acclimatize prior to the start of the experiment. Von Frey filaments were applied perpendicular to the mid plantar surface of the hind paw with sufficient force to cause slight bending against the paw and held for a few seconds. This was repeated 5 times at intervals of 1–2 s. A positive response was noted if the paw was sharply withdrawn or there was flinching upon removal of the hair. […] Using a modified ‘up-down’ method the lowest force filament producing a positive response was recorded as the threshold.
# Heat and cold sensitivities were assessed by measuring the time for paw withdrawal from a 50°C hotplate or 10°C coldplate (Ugo Basile, Milan) of lightly restrained mice.
# as §4
# [9] = system: Trpa1+/+ and Trpa1-/- mice; assay: Glucose tolerance test, blood glucose; assay type: in vivo
# Method: The glucose tolerance test was performed in mice (not fasted) treated i.p. with 2 g/kg glucose or vehicle (0.2 ml, 0.9% saline). HC030031 (100 mg/kg) or vehicle (DMSO 10%, Tween 80 5%, 0.9% saline 85%) was administered i.p. 30 min before glucose or vehicle. Glucose concentrations were determined using a Contour blood glucose meter (Bayer Diabetes Care) in blood samples taken from the tail-tip.
# T1 sequence (Q8BLA8 whole entry K712Q): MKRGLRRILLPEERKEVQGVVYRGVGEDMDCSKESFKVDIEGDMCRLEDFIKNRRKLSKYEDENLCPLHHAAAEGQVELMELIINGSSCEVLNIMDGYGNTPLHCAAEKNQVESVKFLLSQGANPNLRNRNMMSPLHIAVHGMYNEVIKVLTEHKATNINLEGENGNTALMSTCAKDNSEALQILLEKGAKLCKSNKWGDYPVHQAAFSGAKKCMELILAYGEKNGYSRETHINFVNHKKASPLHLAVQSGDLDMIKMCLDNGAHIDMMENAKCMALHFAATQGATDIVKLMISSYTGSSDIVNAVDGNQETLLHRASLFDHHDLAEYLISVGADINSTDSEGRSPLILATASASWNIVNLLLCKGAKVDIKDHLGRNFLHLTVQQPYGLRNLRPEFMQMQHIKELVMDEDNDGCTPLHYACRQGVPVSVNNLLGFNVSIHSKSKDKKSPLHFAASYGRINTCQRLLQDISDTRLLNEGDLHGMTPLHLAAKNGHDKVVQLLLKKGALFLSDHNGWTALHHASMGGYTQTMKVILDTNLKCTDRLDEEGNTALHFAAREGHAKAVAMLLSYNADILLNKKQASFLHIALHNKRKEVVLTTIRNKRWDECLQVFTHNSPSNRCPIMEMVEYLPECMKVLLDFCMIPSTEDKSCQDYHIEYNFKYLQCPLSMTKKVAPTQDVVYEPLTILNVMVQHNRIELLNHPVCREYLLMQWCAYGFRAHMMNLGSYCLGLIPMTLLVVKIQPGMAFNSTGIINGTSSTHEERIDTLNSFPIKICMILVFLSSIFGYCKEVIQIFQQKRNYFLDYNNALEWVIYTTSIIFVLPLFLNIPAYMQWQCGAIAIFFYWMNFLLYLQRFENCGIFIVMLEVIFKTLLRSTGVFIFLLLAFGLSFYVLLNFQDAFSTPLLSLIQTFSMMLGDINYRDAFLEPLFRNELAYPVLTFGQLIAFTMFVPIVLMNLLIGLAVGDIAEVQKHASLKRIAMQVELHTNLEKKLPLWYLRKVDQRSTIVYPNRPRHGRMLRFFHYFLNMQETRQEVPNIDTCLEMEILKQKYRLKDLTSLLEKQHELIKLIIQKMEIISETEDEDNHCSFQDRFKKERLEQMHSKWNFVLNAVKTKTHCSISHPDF
smiles,measurement,setting,value
C=CCN=C=S [AITC],[Ca2+]i-influx response,[1]; 100 µM,evoked [Ca^2+]i-influx responses
same,EC50,"[1]; read-out: EC50, [Ca2+]i-responses",9.1 ± 2 µM
same,effect of DTT (2 mM) on agonist-evoked TRPA1 current,[2]; AITC 50 µM,resistant to treatment with DTT
same,outward TRPA1 current after removal of agonist,[2]; AITC 50 µM,declined with time after removal of AITC
same,[Ca2+]i-responses in beta cells,[3],failed to elicit [Ca^2+]i-responses
same,amplitude of [Ca2+]i-responses in mTRPA1 K712Q compared to WT mTRPA1,[4]; AITC 50 µM,significantly reduced
same,"effect of substitutions C621S, C641S, C665S on sensitivity to AITC",[5],very substantially reduced
"CC(=Cc1ccc(Cl)cc1)C(C)=NO [AP18, 4-(4-chlorophenyl)-3-methylbut-3-en-2-one oxime]",effect on concentration-response curves for AITC and MG,[1]; AP18 10 µM,produced similar rightward shifts
"NC(CCC(=O)NC(CSCc1ccc(Br)cc1)C(=O)NCC(=O)OC1CCCC1)C(=O)OC1CCCC1 (stereo not drawn) [GLO-1 inhibitor, Sr-p-Bromobenzylglutathione cyclopentyl diester]",sensitivity in the paw pressure test,[6],unaffected
same,sensitivity in the von Frey filaments test,[6],unaffected
same,IENF density compared to vehicle treated mice,[7],failed to produce a significant reduction
same,sensitivity to all four test modalities,"[8]; Trpa1+/+ mice, after day 4, 7 administrations over 2 weeks, 50 mg/kg i.p.",progressively increased
same,"sensitivity to cold, heat, paw-pressure and von Frey stimulation","[8]; first 4 days of the study, 50 mg/kg i.p. every 2 days",no increased sensitivity in any of the tests
same,persistence of hypersensitivities,[8]; two weeks after cessation of drug administration,no sign of reversal
CC(C)c1ccc(NC(=O)Cn2cnc3c2c(=O)n(C)c(=O)n3C)cc1 [HC030031],blood glucose in mice not challenged with glucose,[9]; 100 mg/kg i.p.,increased the blood glucose
same,blood glucose following a glucose challenge,"[9]; 100 mg/kg i.p. 30 min before glucose 2 g/kg i.p., both Trpa1+/+ and Trpa1-/- mice",dramatically enhanced the increase in blood glucose
O=C/C=C/c1ccccc1 [cinnamaldehyde],[Ca2+]i-influx response,[1]; 1 mM,evoked [Ca^2+]i-influx responses
OO [hydrogen peroxide],[Ca2+]i-influx response,[1]; 20 mM,evoked [Ca^2+]i-influx responses
same,effect of DTT (2 mM) on agonist-evoked TRPA1 current,[2]; H2O2 5 mM,rapidly reduced the current amplitude
same,outward TRPA1 current after removal of agonist,[2]; H2O2 5 mM,remained at a stable amplitude after removal of H2O2
CC1=C[C@H]2c3c(O)cc(C)cc3OC(C)(C)[C@@H]2CC1 [Δ^9-tetrahydrocannabiorcol],amplitude of [Ca2+]i-responses in mTRPA1 K712Q compared to WT mTRPA1,[4]; 20 µM (Fig. 4D),significantly reduced
